Experiments:
[1] = Thermogravimetric analysis / DSC weight loss; assay type: physicochemical; settings: <120° C.
Procedure: Differential scanning calorimetry (“DSC”) was performed with a TA Q2000 instrument, using approx 1 mg of sample in a crimped Al pan, heating from room temperature to 300° C. at a rate of 10° C./min.
Thermogravimetric analysis (“TGA”) was performed with a TA Q5000 instrument, using approx 2-5 mg of sample in an open Pt pan, heating from room temperature to 300° C. at a rate of 10° C./min.

[2] = Stability (50° C., 40° C./75% RH, light; 1 week); assay type: physicochemical; settings: for XRPD change? / purity: bulk, 1 week
Procedure: The stability of the free base 1 and the selected salts 8, 9, 10, and 11 was evaluated. For each material, aliquots were set up at each of conditions (50° C., 40° C./75% RH, light) at given time points (initial and 1 week). PXRD diffractograms of the hydrogen fumarate salt 11 is shown in FIG. 17, with trace (a) showing the initial salt, trace (b) showing the salt after light treatment, trace (c) showing the salt after storage at 40° C. and 75% relative humidity for 1 week, and (d) showing the salt after storage at 50° C. for 1 week.

weight loss (TGA, %) [1]: 0.11% (<120° C.)
XRPD change? ([2]; 40° C., 75% RH): no
purity ([2]; 40° C., 75% RH): 99.88%
XRPD change? ([2]; 50° C.): no
purity ([2]; 50° C.): 99.89%
initial purity ([2]; initial (before storage)): 99.85%
XRPD change? ([2]; light): no
purity ([2]; light): 99.89%
SMILES: CC(C)c1nc(-c2cnc(N)c(OC(F)(F)F)c2)cn1C12CC(N3CCOCC3)(C1)C2.O=C(O)/C=C/C(=O)O [Example 11, 5-(2-isopropyl-1-(3-morpholinobicyclo[1.1.1]pentan-1-yl)-1H-imidazol-4-yl)-3-(trifluoromethoxy)pyridin-2-amine hydrogen fumarate]

Reference: patent publication US20190382396A1, “SALTS OF BICYCLO[1.1.1]PENTANE INHIBITORS OF DUAL LEUCINE ZIPPER (DLK) KINASE FOR THE TREATMENT OF DISEASE” (Board of Regents, The University of Texas System, priority 2018, published 2019)
